pKi: −log10 of the molar value. Read-outs that look alike come from different tables or passages of the source.
What was measured:
human σ2/TMEM97 receptor = target: T1, human σ2/TMEM97 receptor (Homo sapiens, UniProt Q5BJF2); test: Binding assay to human σ2/TMEM97 receptor ([3H]-DTG); conditions: transfected HEK-293 membranes, 10 nM [3H]-DTG, 25° C., 120 minutes; read-out: Binding σ-[…] (binding to σ2-receptor expressed as Ki)
T1 construct: expressed in transfected cells; host or cells: HEK-293
Procedure, shortened: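 Membranes from transfected HEK-293 cells incubated with 10 nM [3H]-DTG in 50 mM Tris-HCl pH 8.0, 120 min at 25 °C; non-specific binding defined with 10 μM haloperidol. Bound radioactivity counted after filtration; compounds tested as % inhibition at 1 or 10 μM or at five concentrations for Ki.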

human σ1 receptor = target: T2, human σ1 receptor (Homo sapiens, UniProt Q99720); test: Human σ1 receptor radioligand assay ([3H](+)-pentazocine); assay type: binding
T2 construct: expressed in transfected cells; host or cells: HEK-293
Procedure, shortened: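 Binding used [3H](+)-pentazocine, 120 min at 37° C, with non-specific binding defined by 10 μM haloperidol. Bound radioligand was collected by filtration, washed with ice-cold 10 mM Tris-HCl pH 7.4 and counted by scintillation.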

[1] = transfected HEK-293 membranes, 5 nM [3H](+)-pentazocine, 37° C., 120 minutes, read-out: Binding σ-[…] (binding to σ1-receptor expressed as Ki)

T2 sequence (Q99720 whole entry): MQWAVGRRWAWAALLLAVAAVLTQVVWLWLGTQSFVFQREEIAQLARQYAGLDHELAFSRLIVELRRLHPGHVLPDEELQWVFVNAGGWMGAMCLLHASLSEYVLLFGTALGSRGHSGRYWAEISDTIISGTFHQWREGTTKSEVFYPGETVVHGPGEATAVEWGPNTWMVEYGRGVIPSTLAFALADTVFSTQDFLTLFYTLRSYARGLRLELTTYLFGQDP
T1 sequence (Q5BJF2 whole entry): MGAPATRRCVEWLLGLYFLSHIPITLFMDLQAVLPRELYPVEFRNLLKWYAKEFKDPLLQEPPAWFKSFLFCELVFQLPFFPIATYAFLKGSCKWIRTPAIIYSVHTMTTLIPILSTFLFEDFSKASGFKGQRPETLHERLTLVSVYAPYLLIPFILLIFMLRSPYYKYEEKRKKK

pKi (human σ2/TMEM97 receptor) | pKi (human σ1 receptor; [1]) | SMILES | pKi (human σ1 receptor)
6.30 to 7.00 | > 7.00 | Cc1ccc2c(n1)C(C)(C)CN2C(=O)[C@H]1CC[C@H](N(C)Cc2ncccc2F)CC1 [Example 178, ((1r,4r)-4-(((3-fluoropyridin-2-yl)methyl)(methyl)amino)cyclohexyl)(3,3,5-trimethyl-2,3-dihydro-1H-pyrrolo[3,2-b]pyridin-1-yl)methanone] | –
> 7.00 | > 7.00 | CC1(C)CN(C(=O)N2CCC3(CCN(Cc4cc(C#N)c(F)cc4F)CC3)CC2)c2cccnc21 [Example 167, 5-((9-(3,3-dimethyl-2,3-dihydro-1H-pyrrolo[3,2-b]pyridine-1-carbonyl)-3,9-diazaspiro[5.5]undecan-3-yl)methyl)-2,4-difluorobenzonitrile] | –
> 7.00 | < 6.00 | Cc1ccc2c(n1)C(C)(C)CN2C(=O)N1CCC2(CCN(CCC3CCOCC3)CC2)C1 [Example 108, (8-(2-(tetrahydro-2H-pyran-4-yl)ethyl)-2,8-diazaspiro[4.5]decan-2-yl)(3,3,5-trimethyl-2,3-dihydro-1H-pyrrolo[3,2-t]pyridin-1-yl)methanone] | –
> 7.00 | 6.30 to 7.00 | Cc1ccc2c(n1)C(C)(C)CN2C(=O)N1CCC(N(C)Cc2ccc(N(C)C)cc2)CC1 [Example 68, (4-((4-(dimethylamino)benzyl)(methyl)amino)piperidin-1-yl)(3,3,5-trimethyl-2,3-dihydro-1H-pyrrolo[3,2-b]pyridin-1-yl)methanone] | –
6.30 to 7.00 | 6.30 to 7.00 | Cc1ccc2c(n1)C(C)(C)CN2C(=O)N1CCC(CN(C)Cc2ccccc2)CC1 [Example 66, (4-((benzyl(methyl)amino)methyl)piperidin-1-yl)(3,3,5-trimethyl-2,3-dihydro-1H-pyrrolo[3,2-b]pyridin-1-yl)methanone] | –
> 7.00 | > 7.00 | CC1(C)CN(C(=O)N2CCC3(CCN(Cc4cc(C#N)c(F)cc4F)CC3)C2)c2cccnc21 [Example 158, 5-((2-(3,3-dimethyl-2,3-dihydro-1H-pyrrolo[3,2-b]pyridine-1-carbonyl)-2,8-diazaspiro[4.5]decan-8-yl)methyl)-2,4-difluorobenzonitrile] | –
6.30 to 7.00 | > 7.00 | Cc1ccc2c(n1)C(C)(C)CN2C(=O)[C@H]1CC[C@H](N(C)Cc2ccc(F)cn2)CC1 [Example 179, ((1r,4r)-4-(((5-fluoropyridin-2-yl)methyl)(methyl)amino)cyclohexyl)(3,3,5-trimethyl-2,3-dihydro-1H-pyrrolo[3,2-b]pyridin-1-yl)methanone] | –
> 7.00 | > 7.00 | CC(C)CCN(C)[C@H]1CCCN(C(=O)N2CCc3ncccc32)C1 [Example 64, (S)-(2,3-dihydro-1H-pyrrolo[3,2-b]pyridin-1-yl)(3-(isopentyl(methy)amino)piperidin-1-yl)methanone] | –
< 6.00 | 6.30 to 7.00 | Cc1ccc2c(n1)C(C)(C)CN2C(=O)N1CC[C@H](N(C)Cc2ccccc2)C1 [Example 39, (S)-(3-(benzyl(methyl)amino)pyrrolidin-1-yl)(3,3,5-trimethyl-2,3-dihydro-1H-pyrrolo[3,2-b]pyridin-1-yl)methanone] | –
> 7.00 | 6.00 to 6.30 | Cc1ccc2c(n1)C(C)(C)CN2C(=O)N1CCC2(CCN(CC3CCOCC3)CC2)C1 [Example 105, (8-((tetrahydro-2H-pyran-4-yl)methyl)-2,8-diazaspiro[4.5]decan-2-yl)(3,3,5-trimethyl-2,3-dihydro-1H-pyrrolo[3,2-t]pyridin-1-yl)methanone] | –
< 6.00 | 6.30 to 7.00 | Cc1ccc2c(n1)C(C)(C)CN2C(=O)NC1CCN(Cc2cccc(C#N)c2)CC1 [Example 23, N-(1-(3-cyanobenzyl)piperidin-4-yl)-3,3,5-trimethyl-2,3-dihydro-1H-pyrrolo[3,2-b]pyridine-1-carboxamide] | –
< 6.00 | 6.30 to 7.00 | CN(C)[C@@H](CNC(=O)N1CC(C)(C)c2ncc(Cl)cc21)c1ccccc1 [Example 14, (R)-6-chloro-N-(2-(dimethylamino)-2-phenylethyl)-3,3-dimethyl-2,3-dihydro-1H-pyrrolo[3,2-b]pyridine-1-carboxamide] | –
< 6.00 | > 7.00 | Cc1ccc2c(n1)C(C)(C)CN2C(=O)[C@@H]1CN(Cc2ccccc2)C[C@H]1C [Example 124, ((3S,4S)-1-benzyl-4-methylpyrrolidin-3-yl)(3,3,5-trimethyl-2,3-dihydro-1H-pyrrolo[3,2-b]pyridin-1-yl)methanone] | –
> 7.00 | > 7.00 | CC1(C)CN(C(=O)N2CCC3(CCN(Cc4cc(F)ccc4F)CC3)CC2)c2cccnc21 [Example 164, (9-(2,5-difluorobenzyl)-3,9-diazaspiro[5.5]undecan-3-yl)(3,3-dimethyl-2,3-dihydro-1H-pyrrolo[3,2-b]pyridin-1-yl)methanone] | –
> 7.00 | > 7.00 | CN(Cc1ccccc1)[C@H]1CC[C@H](C(=O)N2CC(C)(C)c3ncccc32)CC1 [Example 138, ((1r,4r)-4-(benzyl(methyl)amino)cyclohexyl)(3,3-dimethyl-2,3-dihydro-1H-pyrrolo[3,2-b]pyridin-1-yl)methanone] | –
> 7.00 | 6.30 to 7.00 | CN(Cc1ccccc1)C1CCN(C(=O)N2CC(C)(C)c3ncccc32)CC1 [Example 29, (4-(benzyl(methyl)amino)piperidin-1-yl)(3,3-dimethyl-2,3-dihydro-1H-pyrrolo[3,2-b]pyridin-1-yl)methanone] | –
< 6.00 | > 7.00 | CC1(C)CN(C(=O)NC2CCN(Cc3ccccc3)CC2)c2cccnc21 [Example 32, N-(1-benzylpiperidin-4-yl)-3,3-dimethyl-2,3-dihydro-1H-pyrrolo[3,2-b]pyridine-1-carboxamide] | –
6.30 to 7.00 | < 6.00 | CN(Cc1cc(C#N)ccc1F)C1CCN(C(=O)N2CC(C)(C)c3ncccc32)CC1 [Example 77, 3-(((1-(3,3-dimethyl-2,3-dihydro-1H-pyrrolo[3,2-b]pyridine-1-carbonyl)piperidin-4-yl)(methyl)amino)methyl)-4-fluorobenzonitrile] | –
> 7.00 | 6.00 to 6.30 | Cc1ccc2c(n1)C(C)(C)CN2C(=O)N1CCC2(CCN(CCC(C)C)CC2)C1 [Example 100, (8-isopentyl-2,8-diazaspiro[4.5]decan-2-yl)(3,3,5-trimethyl-2,3-dihydro-1H-pyrrolo[3,2-b]pyridin-1-yl)methanone] | –
6.30 to 7.00 | 6.30 to 7.00 | Cc1ccc2c(n1)C(C)(C)CN2C(=O)N1CCC(N(C)CC(C)C)CC1 [Example 119, (4-(isobutyl(methyl)amino)piperidin-1-yl)(3,3,5-trimethyl-2,3-dihydro-1H-pyrrolo[3,2-b]pyridin-1-yl)methanone] | –
> 7.00 | > 7.00 | CN(Cc1ccccc1)C1CCN(C(=O)N2CC(C)(C)c3nc(C#N)ccc32)CC1 [Example 40, 1-(4-(benzyl(methyl)amino)piperidine-1-carbonyl)-3,3-dimethyl-2,3-dihydro-1H-pyrrolo[3,2-b]pyridine-5-carbonitrile] | –
6.00 to 6.30 | > 7.00 | Cc1ccc2c(n1)C(C)(C)CN2C(=O)N1CC2(CN(Cc3ccccc3)C2)C1 [Example 81, (6-benzyl-2,6-diazaspiro[3.3]heptan-2-yl)(3,3,5-trimethyl-2,3-dihydro-1H-pyrrolo[3,2-b]pyridin-1-yl)methanone] | –
> 7.00 | > 7.00 | Cc1ccc2c(n1)C(C)(C)CN2C(=O)[C@H]1CC[C@H](N(C)Cc2cccc(F)c2F)CC1 [Example 174, ((1r,4r)-4-((2,3-difluorobenzyl)(methyl)amino)cyclohexyl)(3,3,5-trimethyl-2,3-dihydro-1H-pyrrolo[3,2-b]pyridin-1-yl)methanone] | –
6.00 to 6.30 | < 6.00 | CN(CCc1ccccc1)[C@H]1CCN(C(=O)N2CCc3ncccc32)C1 [Example 62, (S)-(2,3-dihydro-1H-pyrrolo[3,2-b]pyridin-1-yl)(3-(methyl(phenethyl)amino)pyrrolidin-1-yl)methanone] | –
< 6.00 | 6.00 to 6.30 | Cc1ccc2c(n1)C(C)(C)CN2C(=O)N1CC[C@@H](N(C)Cc2ccccc2)C1 [Example 43, (R)-(3-(benzyl(methyl)amino)pyrrolidin-1-yl)(3,3,5-trimethyl-2,3-dihydro-1H-pyrrolo[3,2-b]pyridin-1-yl)methanone] | –
> 7.00 | > 7.00 | Cc1ccc2c(n1)C(C)(C)CN2C(=O)N1CCC2(CCN(Cc3ccccc3F)CC2)CC1 [Example 160, (9-(2-fluorobenzyl)-3,9-diazaspiro[5.5]undecan-3-yl)(3,3,5-trimethyl-2,3-dihydro-1H-pyrrolo[3,2-b]pyridin-1-yl)methanone] | –
6.30 to 7.00 | 6.30 to 7.00 | CC(C)CCN[C@H]1CCCCN(C(=O)N2CCc3ncccc32)C1 [Example 121, (S)-(2,3-dihydro-1H-pyrrolo[3,2-b]pyridin-1-yl)(3-(isopentylamino)azepan-1-yl)methanone] | –

SMILES | pKi (human σ2/TMEM97 receptor) | pKi (human σ1 receptor; [1]) | pKi (human σ1 receptor)
Cc1ccc2c(n1)C(C)(C)CN2C(=O)NC[C@@H](c1ccccc1)N(C)C [Example 4, (R)—N-(2-(dimethylamino)-2-phenylethyl)-3,3,5-trimethyl-2,3-dihydro-1H-pyrrolo[3,2-b]pyridine-1-carboxamide] | < 6.00 | – | > 7.00
Cc1ccc2c(n1)C(C)(C)CN2C(=O)N1CCC[C@H](N(C)CCc2ccccc2)C1 [Example 54, (S)-(3-(methyl(phenethyl)amino)piperidin-1-yl)(3,3,5-trimethyl-2,3-dihydro-1H-pyrrolo[3,2-b]pyridin-1-yl)methanone] | > 7.00 | – | 6.30 to 7.00
